According to patent US20250145594A1, “MODULATORS OF THE INTEGRATED STRESS PATHWAY” (Calico Life Sciences LLC, priority 2020, published 2025):

System: ATF4 luciferase reporter in HEK293T cells
Test: ATF4-Luc assay (in vitro model of VWMD)
Type: cell-based, human
Details: HEK293T cells carrying the ATF4 luciferase reporter, 1 μg/mL tunicamycin, 7 hours, One Glo luminescence
Outline: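 Tunicamycin (1 μg/mL) stress with co-added compound for 7 hours in HEK293T cells stably carrying an ATF4 5′-UTR–luciferase reporter. EC50 values come from the luminescent signal (One Glo).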

First: O=C(CO[C@H]1C[C@@H](OC(F)(F)F)C1)NC12CC(NC(=O)[C@@H]3CC(O)c4cc(Cl)ccc4O3)(C1)C2 (stereo in doubt) [Compound 295, (2S,4S)-6-chloro-4-hydroxy-N-[3-(2-{[cis-3-(trifluoromethoxy)cyclobutyl]oxy}acetamido)bicyclo[1.1.1]pentan-1-yl]-3,4-dihydro-2H-1-benzopyran-2-carboxamide]
Second: O=C(COc1ccc(Cl)c(F)c1)NC12CC(c3ccnc(OCCCOC(F)(F)F)c3)(C1)C2 [Compound 602, 2-(4-chloro-3-fluorophenoxy)-N-(3-{2-[3-(trifluoromethoxy)propoxy]pyridin-4-yl}bicyclo[1.1.1]pentan-1-yl)acetamide]
The EC50 of the first is higher: 0.01 to 0.05 µM for the first, under 0.01 µM for the second.

Same assay, conditions: Homo sapiens, HEK-293T, 7 h, HEK293T cells carrying the ATF4 luciferase reporter, 1 μg/mL tunicamycin, One Glo luminescence

O=C(NC12CC(n3cc(-c4ccc(C5CC5)cn4)cn3)(C1)C2)[C@H]1C[C@@H](O)c2cc(Cl)c(F)cc2O1 [Compound 571, (2R,4R)-6-chloro-N-{3-[4-(5-cyclopropylpyridin-2-yl)-1H-pyrazol-1-yl]bicyclo[1.1.1]pentan-1-yl}-7-fluoro-4-hydroxy-3,4-dihydro-2H-1-benzopyran-2-carboxamide] and O=C(NC12CC(n3cc(-c4ccc(C(F)(F)F)cn4)cn3)(C1)C2)[C@H]1C[C@H](O)c2cc(Cl)c(F)cc2O1 [Compound 478, (2R,4S)-6-chloro-7-fluoro-4-hydroxy-N-(3-{4-[5-(trifluoromethyl)pyridin-2-yl]-1H-pyrazol-1-yl}bicyclo[1.1.1]pentan-1-yl)-3,4-dihydro-2H-1-benzopyran-2-carboxamide] cannot be ordered by EC50: under 0.01 µM for the first, under 0.01 µM for the second.

O=C(COc1ccc(Cl)c(F)c1)NC12CC(c3ccc(C(=O)N4CC(OC(F)(F)F)C4)nc3)(C1)C2 [Compound 605, 2-(4-chloro-3-fluorophenoxy)-N-(3-{6-[3-(trifluoromethoxy)azetidine-1-carbonyl]pyridin-3-yl}bicyclo[1.1.1]pentan-1-yl)acetamide] and O=C(COc1ccc(Cl)c(F)c1)NC12CC(c3ccc(C(=O)N4CC(COC(F)(F)F)C4)nc3)(C1)C2 [Compound 600, 2-(4-chloro-3-fluorophenoxy)-N-[3-(6-{3-[(trifluoromethoxy)methyl]azetidine-1-carbonyl}pyridin-3-yl)bicyclo[1.1.1]pentan-1-yl]acetamide] cannot be ordered by EC50: under 0.01 µM for the first, under 0.01 µM for the second.

C[C@H](COC(F)(F)F)Oc1cnn(C23CC(NC(=O)[C@H]4C[C@@H](O)c5cc(Cl)ccc5O4)(C2)C3)c1 [Compound 440, (2R,4R)-6-chloro-4-hydroxy-N-[3-(4-{[(2R)-1-(trifluoromethoxy)propan-2-yl]oxy}-1H-pyrazol-1-yl)bicyclo[1.1.1]pentan-1-yl]-3,4-dihydro-2H-1-benzopyran-2-carboxamide] and CN(CCOC(F)(F)F)c1cnn(C23CC(NC(=O)[C@H]4C[C@@H](O)c5cc(Cl)ccc5O4)(C2)C3)c1 [Compound 411, (2R,4R)-6-chloro-4-hydroxy-N-[3-(4-{methyl[2-(trifluoromethoxy)ethyl]amino}-1H-pyrazol-1-yl)bicyclo[1.1.1]pentan-1-yl]-3,4-dihydro-2H-1-benzopyran-2-carboxamide] fall in the same range of EC50: 0.01 to 0.05 µM for the first, 0.01 to 0.05 µM for the second.

First: O=C(NC12CC(n3cc(-c4ccc(OC(F)(F)F)cn4)cn3)(C1)C2)[C@H]1C[C@@H](O)c2ccccc2O1 [Compound 367, (2R,4R)-4-hydroxy-N-(3-{4-[5-(trifluoromethoxy)pyridin-2-yl]-1H-pyrazol-1-yl}bicyclo[1.1.1]pentan-1-yl)-3,4-dihydro-2H-1-benzopyran-2-carboxamide]
Second: COc1cc2cn(C34CC(NC(=O)[C@H]5C[C@@H](O)c6cc(C(F)(F)F)ccc6O5)(C3)C4)nc2cn1 [Compound 499, (2R,4R)-4-hydroxy-N-[3-(5-methoxy-2H-pyrazolo[3,4-c]pyridin-2-yl)bicyclo[1.1.1]pentan-1-yl]-6-(trifluoromethyl)-3,4-dihydro-2H-1-benzopyran-2-carboxamide]
The EC50 of the first is lower: under 0.01 µM for the first, 0.01 to 0.05 µM for the second. The first is the more potent here.

Compared with O=C(N[C@H]1C[C@@H](OC(F)(F)F)C1)c1cnn(C23CC(NC(=O)[C@H]4C[C@@H](O)c5cc(Cl)ccc5O4)(C2)C3)c1 [Compound 376, 1-(3-{[(2R,4R)-6-chloro-4-hydroxy-3,4-dihydro-2H-1-benzopyran-2-carbonyl]amino}bicyclo[1.1.1]pentan-1-yl)-N-[cis-3-(trifluoromethoxy)cyclobutyl]-1H-pyrazole-4-carboxamide], O=C(COC12CC(NC(=O)[C@H]3C[C@@H](O)c4cc(Cl)ccc4O3)(C1)C2)N[C@H]1C[C@@H](OC(F)(F)F)C1 [Compound 342, (2R,4R)-6-chloro-4-hydroxy-N-[3-(2-oxo-2-{[cis-3-(trifluoromethoxy)cyclobutyl]amino}ethoxy)bicyclo[1.1.1]pentan-1-yl]-3,4-dihydro-2H-1-benzopyran-2-carboxamide] is lower in EC50: 0.05 to 0.25 µM for the first, 0.01 to 0.05 µM for the second. The second is the more potent here.

O=C(NC12CC(n3cc(CCCOC(F)(F)F)cn3)(C1)C2)[C@H]1C[C@@H](O)c2cc(Cl)c(F)cc2O1 [Compound 514, (2R,4R)-6-chloro-7-fluoro-4-hydroxy-N-(3-{4-[3-(trifluoromethoxy)propyl]-1H-pyrazol-1-yl}bicyclo[1.1.1]pentan-1-yl)-3,4-dihydro-2H-1-benzopyran-2-carboxamide] and O=C(NC12CC(n3cc(C(=O)N4CC(COC(F)(F)F)C4)cn3)(C1)C2)[C@H]1C[C@@H](O)c2cc(Cl)c(F)cc2O1 [Compound 363, (2R,4R)-6-chloro-7-fluoro-4-hydroxy-N-[3-(4-{3-[(trifluoromethoxy)methyl]azetidine-1-carbonyl}-1H-pyrazol-1-yl)bicyclo[1.1.1]pentan-1-yl]-3,4-dihydro-2H-1-benzopyran-2-carboxamide] cannot be ordered by EC50: under 0.01 µM for the first, under 0.01 µM for the second.

First: O=C(NC12CC(c3ccc(OCCOC(F)(F)F)nc3)(C1)C2)[C@H]1C[C@@H](O)c2cc(Cl)ccc2O1 [Compound 450, (2R,4R)-6-chloro-4-hydroxy-N-(3-{6-[2-(trifluoromethoxy)ethoxy]pyridin-3-yl}bicyclo[1.1.1]pentan-1-yl)-3,4-dihydro-2H-1-benzopyran-2-carboxamide]
Second: O=C(NC12CC(c3ccc(OCCCOC(F)(F)F)nc3)(C1)C2)[C@H]1C[C@@H](O)c2cc(Cl)ccc2O1 [Compound 438, (2R,4R)-6-chloro-4-hydroxy-N-(3-{6-[3-(trifluoromethoxy)propoxy]pyridin-3-yl}bicyclo[1.1.1]pentan-1-yl)-3,4-dihydro-2H-1-benzopyran-2-carboxamide]
The EC50 of the first is higher: 0.05 to 0.25 µM for the first, 0.01 to 0.05 µM for the second.

Compared with O=C(NC12CC(n3cc(N4CCN(CC(F)(F)F)CC4=O)cn3)(C1)C2)[C@H]1C[C@@H](O)c2cc(Cl)ccc2O1 [Compound 383, (2R,4R)-6-chloro-4-hydroxy-N-(3-{4-[2-oxo-4-(2,2,2-trifluoroethyl)piperazin-1-yl]-1H-pyrazol-1-yl}bicyclo[1.1.1]pentan-1-yl)-3,4-dihydro-2H-1-benzopyran-2-carboxamide], O=C(NC12CC(n3cc(N4CC[C@@H](COC(F)(F)F)C4)cn3)(C1)C2)[C@H]1C[C@@H](O)c2cc(Cl)ccc2O1 [Compound 336, (2R,4R)-6-chloro-4-hydroxy-N-[3-(4-{(3R)-3-[(trifluoromethoxy)methyl]pyrrolidin-1-yl}-1H-pyrazol-1-yl)bicyclo[1.1.1]pentan-1-yl]-3,4-dihydro-2H-1-benzopyran-2-carboxamide] is higher in EC50: under 0.01 µM for the first, 0.05 to 0.25 µM for the second. The first is the more potent here.

O=C(NC12CC(n3cc(OCCOC(F)(F)F)cn3)(C1)C2)[C@H]1C[C@@H](O)c2cc(C(F)(F)F)ccc2O1 [Compound 424, (2R,4R)-4-hydroxy-N-(3-{4-[2-(trifluoromethoxy)ethoxy]-1H-pyrazol-1-yl}bicyclo[1.1.1]pentan-1-yl)-6-(trifluoromethyl)-3,4-dihydro-2H-1-benzopyran-2-carboxamide] and O=C(NC12CC(c3nnc(OCCOC(F)(F)F)o3)(C1)C2)[C@H]1C[C@@H](O)c2cc(Cl)ccc2O1 [Compound 468, (2R,4R)-6-chloro-4-hydroxy-N-(3-{5-[2-(trifluoromethoxy)ethoxy]-1,3,4-oxadiazol-2-yl}bicyclo[1.1.1]pentan-1-yl)-3,4-dihydro-2H-1-benzopyran-2-carboxamide] cannot be ordered by EC50: under 0.01 µM for the first, under 0.01 µM for the second.

Compared with COc1ccc2nn(C34CC(NC(=O)[C@H]5C[C@@H](O)c6cc(Cl)ccc6O5)(C3)C4)cc2n1 [Compound 462, (2R,4R)-6-chloro-4-hydroxy-N-[3-(5-methoxy-2H-pyrazolo[4,3-b]pyridin-2-yl)bicyclo[1.1.1]pentan-1-yl]-3,4-dihydro-2H-1-benzopyran-2-carboxamide], C[Si]1(C)CCN(C(=O)c2cnn(C34CC(NC(=O)[C@H]5C[C@@H](O)c6cc(Cl)ccc6O5)(C3)C4)c2)C1 [Compound 401, (2R,4R)-6-chloro-N-{3-[4-(3,3-dimethyl-1,3-azasilolidine-1-carbonyl)-1H-pyrazol-1-yl]bicyclo[1.1.1]pentan-1-yl}-4-hydroxy-3,4-dihydro-2H-1-benzopyran-2-carboxamide] is higher in EC50: under 0.01 µM for the first, 0.25 to 0.5 µM for the second. The first is the more potent here.

First: O=C(CO[C@H]1C[C@@H](OC(F)(F)F)C1)N[C@H]1C[C@H]2C[C@@H]1C[C@@H]2NC(=O)[C@H]1C[C@@H](O)c2cc(C(F)(F)F)c(F)cc2O1 [Compound 646, (2R,4R)-7-fluoro-4-hydroxy-N-[(1R,2S,4R,5S)-5-(2-{[(1s,3R)-3-(trifluoromethoxy)cyclobutyl]oxy}acetamido)bicyclo[2.2.1]heptan-2-yl]-6-(trifluoromethyl)-3,4-dihydro-2H-1-benzopyran-2-carboxamide]
Second: O=C(N[C@H]1CC[C@H](n2cc(N3CC[C@@H](OC(F)(F)F)C3)cn2)CC1)[C@H]1C[C@@H](O)c2cc(Cl)ccc2O1 [Compound 581, (2R,4R)-6-chloro-4-hydroxy-N-[(1R,4R)-4-{4-[(3R)-3-(trifluoromethoxy)pyrrolidin-1-yl]-1H-pyrazol-1-yl}cyclohexyl]-3,4-dihydro-2H-1-benzopyran-2-carboxamide]
The EC50 of the first is lower: under 0.01 µM for the first, 0.01 to 0.05 µM for the second.

Work on O=C1C[C@H](C(=O)N[C@H]2C[C@H]3CC[C@@H](C2)N3CCCOc2ccc(Cl)cc2)Oc2ccc(Cl)cc21 [Compound 101, (2R)-6-chloro-N-{(1R,3r,5S)-8-[3-(4-chlorophenoxy)propyl]-8-azabicyclo[3.2.1]octan-3-yl}-4-oxo-3,4-dihydro-2H-1-benzopyran-2-carboxamide] yielded an EC50 of over 2 µM.
